The values that follow come from PubChem BioAssay (NCI).

Molecules are shown by their SMILES.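 Protocol summary: plate cells (96-well), add compound at 5 concentrations, incubate 48 h, interpolate endpoints linearly. Here, GI50 denotes the concentration required for 50% inhibition of growth. TGI: concentration producing complete growth inhibition.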

Among the test systems are COLO 205 colon; SN12C renal; U251 CNS; SK-MEL-2 melanoma; SK-MEL-5 melanoma; NCI-H23 lung; SNB-75 CNS; OVCAR-3 ovarian; CAKI-1 renal.
Test in all cases: NCI tumour cell line growth inhibition, 48 h

Turning to `CCCCC1(C(NC(=O)c2ccccc2Cl)c2ccncc2)C(=O)N(c2ccccc2)N(c2ccccc2)C1=O` (stereo not given), the TGI is 52.6 µM with COLO 205 colon; above 100 µM in the assay on SN12C renal; above 100 µM in the assay with U251 CNS; above 100 µM in the assay on SK-MEL-2 melanoma; 60 µM in the assay on SK-MEL-5 melanoma; above 100 µM in the assay on NCI-H23 lung. The TGI was 71.4 µM with SNB-75 CNS and above 100 µM in the assay on OVCAR-3 ovarian.
Consider `O=C1CCC(=O)N1Sc1ccccc1`, for which the TGI in the assay on CAKI-1 renal, in the assay with COLO 205 colon, in the assay on SN12C renal, in the assay with U251 CNS, in the assay on SK-MEL-2 melanoma and in the assay on SK-MEL-5 melanoma was above 100 µM in each case. The TGI in the assay with NCI-H23 lung, in the assay with SNB-75 CNS and in the assay with OVCAR-3 ovarian was above 100 µM in each case.
Turning to `Cc1ccc2ccc(-c3ccccc3)c3c2c1C(=O)c1ccccc1C3=O`, the TGI in the assay with COLO 205 colon, in the assay with SN12C renal, in the assay with U251 CNS, in the assay on SK-MEL-2 melanoma, in the assay on SK-MEL-5 melanoma and with NCI-H23 lung was above 100 µM throughout. Moreover, the TGI was 68.7 µM in the assay with SNB-75 CNS and above 100 µM in the assay with OVCAR-3 ovarian.
Regarding `OCC(O)C(O)C(O)c1nn(-c2ccc(F)cc2)c2nc3cc(Cl)c(Cl)cc3nc12` (stereo not given), the TGI in the assay on CAKI-1 renal was 55.6 µM; with COLO 205 colon it was above 100 µM; with SN12C renal it was 62.4 µM; in the assay on U251 CNS, above 100 µM; in the assay on SK-MEL-2 melanoma, 39.2 µM; with NCI-H23 lung it was 48 µM. Also, the TGI with SNB-75 CNS was 13.2 µM; with OVCAR-3 ovarian, 49.5 µM.
Regarding `COc1ccc(Br)c(C(=O)N2CCc3ccccc32)c1N`, the TGI in the assay with COLO 205 colon was above 100 µM; in the assay with SN12C renal, above 100 µM; in the assay on U251 CNS, above 100 µM; with SK-MEL-2 melanoma, 84.5 µM; in the assay with SK-MEL-5 melanoma it was above 100 µM; in the assay with NCI-H23 lung, above 100 µM. Besides, the results for the TGI in the assay on SNB-75 CNS and with OVCAR-3 ovarian were 90.3 µM and 66.2 µM, respectively.
As for `Cn1cnnc1[S-].[Au+].c1ccc([PH+](c2ccccc2)c2ccccc2)cc1`, the GI50 in the assay on CAKI-1 renal is 1.5 µM; in the assay with SN12C renal it was 1.7 µM; with SK-MEL-2 melanoma, 1.6 µM; with SK-MEL-5 melanoma, 1.46 µM; with SNB-75 CNS it was 1.43 µM; in the assay with OVCAR-3 ovarian, 1.79 µM. Further, the TGI is 2.82 µM in the assay with CAKI-1 renal; 3.12 µM in the assay with SN12C renal; 3.17 µM in the assay with SK-MEL-2 melanoma; 2.91 µM in the assay with SK-MEL-5 melanoma; 2.74 µM in the assay with SNB-75 CNS; 3.18 µM with OVCAR-3 ovarian.
With `C1=CC2CCC1CN2CCC1CNc2ccccc21` (stereo not given), the TGI in the assay on SN12C renal, with U251 CNS, in the assay with SK-MEL-2 melanoma, in the assay on NCI-H23 lung, in the assay on SNB-75 CNS and in the assay with OVCAR-3 ovarian was above 100 µM in each case.
In the case of `Cc1cc(C)nc(NS(=O)(=O)c2ccc(Nc3c4ccccc4nc4c(C(=O)NCCN(C)C)cccc34)cc2)n1`, the TGI stood at 17.3 µM in the assay with SN12C renal; 18.1 µM in the assay with U251 CNS; 19.1 µM in the assay on SK-MEL-2 melanoma; 18.8 µM in the assay with SK-MEL-5 melanoma; 21.5 µM in the assay with NCI-H23 lung; 24.4 µM in the assay with SNB-75 CNS.
For the compound `Cc1cc(Cl)ccc1NC(=O)C1C(=O)N(c2ccc(Cl)cc2C)C(=O)/C1=N\NC(N)=S` (stereo not given), the TGI with COLO 205 colon is above 100 µM; with SN12C renal, 96.3 µM; with U251 CNS, 39.6 µM; in the assay on SK-MEL-5 melanoma it was above 100 µM; in the assay on NCI-H23 lung, 41.6 µM; with OVCAR-3 ovarian, above 100 µM.
For `COc1cc(OC)c2c(=O)c3cccc([N+](=O)[O-])c3n(C)c2c1`, the TGI in the assay on CAKI-1 renal, with COLO 205 colon, with SN12C renal, in the assay on U251 CNS, in the assay on SK-MEL-2 melanoma and in the assay on SK-MEL-5 melanoma was above 100 µM in each case. The TGI in the assay with NCI-H23 lung and with SNB-75 CNS was above 100 µM in each case.
For `N#CCc1cccc(CC#N)c1Br`, the TGI with CAKI-1 renal, with COLO 205 colon, in the assay on SN12C renal, in the assay on U251 CNS, with SK-MEL-2 melanoma and in the assay on NCI-H23 lung was above 100 µM throughout. In addition, the TGI in the assay on SNB-75 CNS and in the assay with OVCAR-3 ovarian was above 100 µM in each case.
Turning to `O=C1OC(=O)C([Se]c2ccccc2)=C1[Se]c1ccccc1`, the TGI in the assay with CAKI-1 renal, in the assay on COLO 205 colon, in the assay on SN12C renal, in the assay with U251 CNS, with SK-MEL-5 melanoma and with NCI-H23 lung was above 100 µM throughout. In addition, the TGI in the assay on SNB-75 CNS and with OVCAR-3 ovarian was above 100 µM in each case.
